Earlier results, collected in US10022349B2, “Cadotril particles” (Johnson & Johnson Consumer Inc., priority 2014, dated 2018).

How the values were obtained:
[1] = poor aqueous solubility, dissolution rate limited absorption

SMILES	Biopharmaceutical Classification System class [1]	solubility in water (in words)	water solubility (room temperature)
CC(=O)SCC(Cc1ccccc1)C(=O)NCC(=O)OCc1ccccc1 (racemic) [Racecadotril, (RS)-benzyl N-[3-(acetylthio)-2-benzylpropanoyl]glycinate]	class II	insoluble in water	about 10 micrograms/ml
CC(=O)SC[C@H](Cc1ccccc1)C(=O)NCC(=O)OCc1ccccc1 [dexecadotril, N—[(R)-2-Benzyl-3-(acetylthio)propionyl]glycine benzyl ester]	–	insoluble in water	–
CC(=O)SC[C@@H](Cc1ccccc1)C(=O)NCC(=O)OCc1ccccc1 [ecadotril, N—[(S)-2-[(Acetylthio)methyl]-1-oxo-3-phenylpropyl]glycinebenzyl ester]	–	insoluble in water	–
